Reference: ChEMBL document CHEMBL1126913, “A homologous series of permanently charged 1,4-dihydropyridines: novel probes designed to localize drug binding sites on ion channels” (J Med Chem, 1993)

Target: Voltage-dependent L-type calcium channel subunit alpha-1C (Rattus norvegicus, UniProt P22002)
Experiment: Inhibition of [3H](+)-PN200-110 binding to L-type calcium channel 1,4-DHP binding site of rat ventricular myocytes
Format: cell-based, Ventricular myocyte

Chain of Voltage-dependent L-type calcium channel subunit alpha-1C (P22002 whole entry): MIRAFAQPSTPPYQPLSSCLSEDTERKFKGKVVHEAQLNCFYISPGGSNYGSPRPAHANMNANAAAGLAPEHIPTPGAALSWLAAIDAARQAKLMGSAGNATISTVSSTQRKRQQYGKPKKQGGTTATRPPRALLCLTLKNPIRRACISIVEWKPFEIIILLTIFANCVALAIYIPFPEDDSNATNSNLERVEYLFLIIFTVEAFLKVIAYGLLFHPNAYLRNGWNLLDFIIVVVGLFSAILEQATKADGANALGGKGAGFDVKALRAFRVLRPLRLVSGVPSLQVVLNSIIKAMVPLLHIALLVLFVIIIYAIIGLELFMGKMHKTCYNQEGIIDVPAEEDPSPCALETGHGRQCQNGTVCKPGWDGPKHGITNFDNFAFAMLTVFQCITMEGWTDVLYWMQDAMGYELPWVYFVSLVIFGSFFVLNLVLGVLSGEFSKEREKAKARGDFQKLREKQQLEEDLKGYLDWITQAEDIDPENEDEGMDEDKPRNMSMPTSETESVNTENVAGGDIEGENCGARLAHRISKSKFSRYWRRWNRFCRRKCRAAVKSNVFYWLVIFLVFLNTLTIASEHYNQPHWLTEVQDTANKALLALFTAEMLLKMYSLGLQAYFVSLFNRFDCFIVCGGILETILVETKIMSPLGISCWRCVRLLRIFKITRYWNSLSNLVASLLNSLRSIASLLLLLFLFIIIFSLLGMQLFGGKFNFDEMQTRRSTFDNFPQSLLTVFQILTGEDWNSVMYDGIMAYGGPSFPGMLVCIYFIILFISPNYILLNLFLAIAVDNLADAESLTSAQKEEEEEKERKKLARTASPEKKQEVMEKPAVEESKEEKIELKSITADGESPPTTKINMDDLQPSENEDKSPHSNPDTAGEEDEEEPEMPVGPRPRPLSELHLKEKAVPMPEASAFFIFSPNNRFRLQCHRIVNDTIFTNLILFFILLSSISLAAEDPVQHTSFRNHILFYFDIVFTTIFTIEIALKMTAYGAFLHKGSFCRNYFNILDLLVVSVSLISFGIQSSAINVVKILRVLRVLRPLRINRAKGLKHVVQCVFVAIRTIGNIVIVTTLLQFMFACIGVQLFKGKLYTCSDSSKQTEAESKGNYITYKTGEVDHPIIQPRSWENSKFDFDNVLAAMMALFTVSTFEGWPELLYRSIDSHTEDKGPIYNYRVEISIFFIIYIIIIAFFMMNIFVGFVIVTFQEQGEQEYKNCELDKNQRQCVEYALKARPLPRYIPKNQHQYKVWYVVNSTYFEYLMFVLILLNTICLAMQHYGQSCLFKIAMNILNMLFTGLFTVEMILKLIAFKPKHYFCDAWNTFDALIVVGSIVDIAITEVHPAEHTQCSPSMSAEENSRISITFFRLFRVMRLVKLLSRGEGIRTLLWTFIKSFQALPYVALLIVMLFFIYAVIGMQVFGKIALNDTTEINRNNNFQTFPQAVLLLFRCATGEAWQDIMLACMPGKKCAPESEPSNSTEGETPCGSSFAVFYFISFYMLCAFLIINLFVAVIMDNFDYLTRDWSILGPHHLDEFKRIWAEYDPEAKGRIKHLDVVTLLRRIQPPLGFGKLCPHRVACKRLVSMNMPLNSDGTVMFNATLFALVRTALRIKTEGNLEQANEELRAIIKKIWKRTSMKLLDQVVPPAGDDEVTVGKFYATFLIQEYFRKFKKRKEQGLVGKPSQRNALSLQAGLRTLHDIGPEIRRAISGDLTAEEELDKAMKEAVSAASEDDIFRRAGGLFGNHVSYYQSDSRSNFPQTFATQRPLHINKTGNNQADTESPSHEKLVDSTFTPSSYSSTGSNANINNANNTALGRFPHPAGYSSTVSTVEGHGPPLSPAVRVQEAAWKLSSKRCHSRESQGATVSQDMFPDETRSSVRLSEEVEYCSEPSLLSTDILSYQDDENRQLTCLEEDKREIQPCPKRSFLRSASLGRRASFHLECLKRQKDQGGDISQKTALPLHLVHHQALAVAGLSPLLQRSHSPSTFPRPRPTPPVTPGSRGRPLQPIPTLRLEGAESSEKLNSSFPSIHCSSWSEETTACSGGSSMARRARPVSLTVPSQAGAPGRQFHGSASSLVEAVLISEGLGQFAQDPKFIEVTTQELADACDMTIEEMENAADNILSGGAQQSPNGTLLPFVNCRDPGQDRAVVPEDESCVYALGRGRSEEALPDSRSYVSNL

Ki [nM] | Structure (SMILES)
33.2 | COC(=O)C1=C(C)NC(C)=C(C(=O)OCC[N+](C)(C)C)C1c1ccccc1C(F)(F)F (configuration not stated)
15.7 | CCCCCCCCCCCCCCOC(=O)C1=C(C)NC(C)=C(C(=O)OC)C1c1ccccc1C(F)(F)F (configuration not stated)
